From ChEMBL document CHEMBL6182828, “Medicinal chemistry-based perspectives on thiophene and its derivatives: exploring structural insights to discover plausible druggable leads” (RSC Med Chem, 2025)
Blank lines part the entries; values can stand above or below the compound they belong to.

Columns and labels:
Bacillus subtilis [1] = assay: Antibacterial activity against Bacillus subtilis ATCC 6633 assessed as zone of inhibition; type: functional
Staphylococcus aureus = assay: Antibacterial activity against Staphylococcus aureus ATCC 25923 assessed as zone of inhibition; type: functional
MCF7 [2] = assay: Growth inhibition of human MCF7 cells incubated for 48 hrs by SRB assay; type: functional
NCI-H460 = assay: Growth inhibition of human NCI-H460 cells incubated for 48 hrs by SRB assay; type: functional
SF-268 = assay: Growth inhibition of human SF-268 cells incubated for 48 hrs by SRB assay; type: functional
Bacillus subtilis [3] = assay: Antibacterial activity against Bacillus subtilis ATCC 6633 assessed as zone of inhibition incubated for 48 hrs by agar diffusion method; type: functional
Escherichia coli = assay: Antibacterial activity against Escherichia coli ATCC 35218 assessed as zone of inhibition incubated for 48 hrs by agar diffusion method; type: functional
Mus musculus = assay: Anti-diabetic activity against 16 hrs fasted KK/Ay mouse assessed as reduced blood glucose level at 2g/kg, po measured after 2 hrs by oral pyruvate tolerance test; type: functional
[4] = Half life in po dosed human; type: ADME, organism-based; details: in vivo
MCF7 [5] = assay: Antiproliferative activity against human MCF7 cells; type: functional, cell-based; details: mcf7
[6] = biological target: T1, Polyunsaturated fatty acid 5-lipoxygenase (Homo sapiens, UniProt P09917); assay: Inhibition of 5-LOX (unknown origin)
T1 sequence (P09917 whole entry): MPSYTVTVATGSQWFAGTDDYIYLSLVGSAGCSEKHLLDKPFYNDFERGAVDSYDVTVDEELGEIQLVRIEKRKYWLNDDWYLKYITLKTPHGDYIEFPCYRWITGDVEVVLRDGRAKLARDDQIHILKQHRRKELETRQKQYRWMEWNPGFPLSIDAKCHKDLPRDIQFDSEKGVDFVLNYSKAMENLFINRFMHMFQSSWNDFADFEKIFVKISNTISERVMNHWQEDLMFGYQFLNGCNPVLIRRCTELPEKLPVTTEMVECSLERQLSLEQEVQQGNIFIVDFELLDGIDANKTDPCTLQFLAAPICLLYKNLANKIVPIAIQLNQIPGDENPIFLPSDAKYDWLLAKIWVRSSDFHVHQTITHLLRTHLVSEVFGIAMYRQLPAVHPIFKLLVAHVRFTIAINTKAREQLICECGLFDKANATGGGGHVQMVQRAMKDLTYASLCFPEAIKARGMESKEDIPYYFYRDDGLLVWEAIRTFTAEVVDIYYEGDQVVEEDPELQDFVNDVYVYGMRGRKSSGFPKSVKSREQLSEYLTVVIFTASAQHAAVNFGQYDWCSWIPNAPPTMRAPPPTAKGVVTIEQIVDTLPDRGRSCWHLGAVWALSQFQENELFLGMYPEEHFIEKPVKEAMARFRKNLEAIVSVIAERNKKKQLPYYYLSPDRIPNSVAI

[7] = biological target: Vascular endothelial growth factor receptor 2 (Homo sapiens, UniProt P35968); assay: Inhibition of VEGFR2 (unknown origin)
Sequence of Vascular endothelial growth factor receptor 2 (P35968 whole entry): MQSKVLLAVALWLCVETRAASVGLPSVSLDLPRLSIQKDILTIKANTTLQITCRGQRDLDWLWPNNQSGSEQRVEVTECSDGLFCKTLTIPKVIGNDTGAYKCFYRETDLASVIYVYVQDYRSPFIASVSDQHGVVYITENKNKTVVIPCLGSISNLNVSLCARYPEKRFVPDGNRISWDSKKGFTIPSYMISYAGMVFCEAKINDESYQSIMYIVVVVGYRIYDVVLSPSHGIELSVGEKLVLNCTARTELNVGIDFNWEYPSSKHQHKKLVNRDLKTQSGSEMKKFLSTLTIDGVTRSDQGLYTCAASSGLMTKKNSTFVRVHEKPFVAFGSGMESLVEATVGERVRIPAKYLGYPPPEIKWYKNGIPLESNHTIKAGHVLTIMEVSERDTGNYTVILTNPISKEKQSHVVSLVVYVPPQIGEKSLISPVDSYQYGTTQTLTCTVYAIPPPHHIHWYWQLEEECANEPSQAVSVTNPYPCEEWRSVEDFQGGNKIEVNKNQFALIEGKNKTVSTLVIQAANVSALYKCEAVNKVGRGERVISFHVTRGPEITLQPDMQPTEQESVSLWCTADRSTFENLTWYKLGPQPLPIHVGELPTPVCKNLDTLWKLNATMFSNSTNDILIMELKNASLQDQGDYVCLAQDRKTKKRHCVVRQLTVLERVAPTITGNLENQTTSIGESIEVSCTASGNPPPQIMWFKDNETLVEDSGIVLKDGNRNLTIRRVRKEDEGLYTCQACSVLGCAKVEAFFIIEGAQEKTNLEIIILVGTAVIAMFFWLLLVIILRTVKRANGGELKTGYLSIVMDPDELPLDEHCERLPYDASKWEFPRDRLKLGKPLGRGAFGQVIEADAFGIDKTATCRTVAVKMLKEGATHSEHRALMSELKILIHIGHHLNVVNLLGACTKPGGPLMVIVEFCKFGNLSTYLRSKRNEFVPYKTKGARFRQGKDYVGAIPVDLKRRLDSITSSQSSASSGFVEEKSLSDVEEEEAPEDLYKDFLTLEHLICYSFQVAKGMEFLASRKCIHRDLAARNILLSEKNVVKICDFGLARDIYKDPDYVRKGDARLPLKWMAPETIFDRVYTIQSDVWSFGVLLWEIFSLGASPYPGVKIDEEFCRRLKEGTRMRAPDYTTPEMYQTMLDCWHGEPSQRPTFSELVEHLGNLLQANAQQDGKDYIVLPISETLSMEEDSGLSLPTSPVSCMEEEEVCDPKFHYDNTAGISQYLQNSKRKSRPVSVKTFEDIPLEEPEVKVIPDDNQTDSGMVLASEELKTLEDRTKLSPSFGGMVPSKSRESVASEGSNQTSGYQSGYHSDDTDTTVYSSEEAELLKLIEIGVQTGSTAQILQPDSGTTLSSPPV

[8] = biological target: Epidermal growth factor receptor (Homo sapiens, UniProt P00533); assay: Inhibition of EGFR (unknown origin)
Sequence of Epidermal growth factor receptor (P00533 whole entry): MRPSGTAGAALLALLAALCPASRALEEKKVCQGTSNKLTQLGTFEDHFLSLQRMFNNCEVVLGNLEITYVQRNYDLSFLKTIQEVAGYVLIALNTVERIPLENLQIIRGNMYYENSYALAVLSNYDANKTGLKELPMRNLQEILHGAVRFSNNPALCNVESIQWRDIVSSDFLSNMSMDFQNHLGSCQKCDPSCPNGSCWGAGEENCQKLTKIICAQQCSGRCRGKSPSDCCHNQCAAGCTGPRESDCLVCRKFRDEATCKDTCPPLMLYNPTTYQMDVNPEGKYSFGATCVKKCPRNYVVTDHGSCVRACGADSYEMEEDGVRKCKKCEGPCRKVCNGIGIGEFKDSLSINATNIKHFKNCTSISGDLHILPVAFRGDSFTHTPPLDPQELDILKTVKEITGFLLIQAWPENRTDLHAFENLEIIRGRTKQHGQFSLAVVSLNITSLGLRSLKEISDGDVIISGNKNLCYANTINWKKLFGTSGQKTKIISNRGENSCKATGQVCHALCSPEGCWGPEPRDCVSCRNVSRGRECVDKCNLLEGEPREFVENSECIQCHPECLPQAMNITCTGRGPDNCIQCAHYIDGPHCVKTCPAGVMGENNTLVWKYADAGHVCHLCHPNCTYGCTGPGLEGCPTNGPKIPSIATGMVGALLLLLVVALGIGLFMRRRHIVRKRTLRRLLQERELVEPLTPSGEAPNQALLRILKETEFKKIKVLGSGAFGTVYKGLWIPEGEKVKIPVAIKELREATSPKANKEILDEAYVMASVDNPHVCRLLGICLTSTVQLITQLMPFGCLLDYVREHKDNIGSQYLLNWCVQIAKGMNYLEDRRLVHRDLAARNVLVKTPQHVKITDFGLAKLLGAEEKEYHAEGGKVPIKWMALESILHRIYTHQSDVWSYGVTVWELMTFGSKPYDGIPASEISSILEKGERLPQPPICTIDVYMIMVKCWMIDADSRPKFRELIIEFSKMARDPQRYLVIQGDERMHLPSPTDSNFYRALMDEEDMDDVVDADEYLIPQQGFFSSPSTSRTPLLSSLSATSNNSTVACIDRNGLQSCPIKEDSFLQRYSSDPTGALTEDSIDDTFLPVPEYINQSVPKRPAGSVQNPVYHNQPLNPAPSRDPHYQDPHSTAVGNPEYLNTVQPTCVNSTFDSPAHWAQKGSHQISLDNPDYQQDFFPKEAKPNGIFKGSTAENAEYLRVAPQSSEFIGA

[9] = Inhibition of Alpha-amylase (unknown origin); design: species or system Homo sapiens
Alpha glucosidase = Alpha glucosidase (Homo sapiens, UniProt O43451+P10253+P14410+Q2M2H8); assay: Inhibition of Alpha glucosidase (unknown origin); type: protein assay
[10] = Antioxidant activity assessed as DPPH radical scavenging activity; type: functional; details: read-out: IC50
Glucagon receptor [11] = biological target: T2, Glucagon receptor (Homo sapiens, UniProt P47871); assay: Antagonist activity at wild type human GCGR
T2 sequence (P47871 whole entry): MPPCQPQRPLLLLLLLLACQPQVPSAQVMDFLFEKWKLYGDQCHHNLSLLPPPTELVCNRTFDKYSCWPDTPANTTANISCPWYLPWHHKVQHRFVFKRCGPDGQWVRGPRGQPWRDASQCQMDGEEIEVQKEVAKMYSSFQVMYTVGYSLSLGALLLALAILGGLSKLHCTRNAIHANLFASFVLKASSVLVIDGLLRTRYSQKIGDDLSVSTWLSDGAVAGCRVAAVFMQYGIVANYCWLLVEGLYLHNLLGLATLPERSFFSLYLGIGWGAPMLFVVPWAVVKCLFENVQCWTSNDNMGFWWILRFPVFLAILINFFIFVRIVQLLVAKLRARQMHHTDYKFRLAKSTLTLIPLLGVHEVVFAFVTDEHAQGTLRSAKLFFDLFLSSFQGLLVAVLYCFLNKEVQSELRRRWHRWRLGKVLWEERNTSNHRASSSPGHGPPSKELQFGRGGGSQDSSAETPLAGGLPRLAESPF

Glucagon receptor [12] = biological target: T2, Glucagon receptor; assay: Antagonist activity at wild type human GCGR transfected in HEK293T cells assessed as intracellular cAMP accumulation incubated for 60 mins by FRET assay; type: functional, cell-based
[13] = biological target: Amine oxidase [flavin-containing] A (Homo sapiens, UniProt P21397); assay: Inhibition of human MAO-A measured after 25 mins by Amplex Red reagent based fluorescence analysis
Sequence of Amine oxidase [flavin-containing] A (P21397 whole entry): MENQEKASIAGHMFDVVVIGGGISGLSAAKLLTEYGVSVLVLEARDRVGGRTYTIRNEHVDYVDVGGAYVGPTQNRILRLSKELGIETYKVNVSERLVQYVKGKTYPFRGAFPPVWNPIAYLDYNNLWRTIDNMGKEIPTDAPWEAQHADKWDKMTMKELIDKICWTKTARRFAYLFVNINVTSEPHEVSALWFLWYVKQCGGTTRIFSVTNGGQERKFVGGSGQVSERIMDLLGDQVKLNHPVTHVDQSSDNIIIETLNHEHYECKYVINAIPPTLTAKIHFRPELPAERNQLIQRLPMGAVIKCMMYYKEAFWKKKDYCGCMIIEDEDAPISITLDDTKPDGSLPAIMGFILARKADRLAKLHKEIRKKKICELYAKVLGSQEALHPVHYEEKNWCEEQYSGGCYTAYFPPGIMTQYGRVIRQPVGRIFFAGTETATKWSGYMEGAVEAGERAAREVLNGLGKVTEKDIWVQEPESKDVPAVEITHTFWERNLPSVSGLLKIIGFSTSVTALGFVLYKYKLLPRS

MDA-MB-231 = assay: cells; details: Homo sapiens
Description: Cytotoxicity against human MDA-MB-231 cells assessed as reduction in cell viability by MTT assay

PC-3 = assay: cells; details: Homo sapiens
Description: Cytotoxicity against human PC-3 cells assessed as reduction in cell viability by MTT assay

A549 = assay: cells; details: Homo sapiens
Description: Cytotoxicity against human A549 cells assessed as reduction in cell viability by MTT assay

Candida albicans = assay: Antifungal activity against Candida albicans assessed as zone of inhibition; type: functional
Arthroderma pannicola = assay: Antifungal activity against Arthroderma pannicola assessed as diameter of zone of inhibition; type: functional
[14] = Antioxidant activity assessed as DPPH radical scavenging activity at 10 uM incubated for 30 mins by absorbance based assay relative to control; type: functional
DLD-1 = assay: Cytotoxicity against human DLD-1 cells assessed as reduction in cell growth incubated for 24 hrs by SRB assay; type: functional, cell-based; details: DLD-1, 24 h
[15] = Cytotoxicity against human WI-38 cells assessed as reduction in cell growth incubated for 24 hrs by SRB assay; type: toxicity, cell-based
HA22T cell line = assay: Cytotoxicity against human HA22T cell line assessed as reduction in cell growth incubated for 24 hrs by SRB assay; type: functional, cell-based
HepG2 = assay: Cytotoxicity against human HepG2 cells assessed as reduction in cell growth incubated for 24 hrs by SRB assay; type: functional, cell-based; details: HepG2, 24 h
HONE1 cell line = assay: Cytotoxicity against human HONE1 cell line assessed as reduction in cell growth incubated for 24 hrs by SRB assay; type: toxicity, cell-based; details: HONE1, 24 h
MCF7 [16] = assay: Cytotoxicity against human MCF7 cells assessed as reduction in cell growth incubated for 24 hrs by SRB assay; type: functional, cell-based; details: MCF7, 24 h
NUGC-3 = assay: Cytotoxicity against human NUGC-3 cells assessed as reduction in cell growth incubated for 24 hrs by SRB assay; type: functional, cell-based; details: NUGC-3, 24 h
Leishmania major = assay: Antileishmanial activity against Leishmania major promastigotes MHOM/IL/80/Friedlin expressing firefly luciferase infected in rhesus monkey LLC-MK2 cells assessed as reduction in parasite growth incubated for 72 hrs by luciferase based luminescence analysis; type: functional, organism-based; details: LLC-MK2, 72 h
Rattus norvegicus = assay: Anti-inflammatory activity against carrageenan-induced paw edema in Albino rat assessed as inhibition of paw edema at 50 mg/kg, po relative to control; type: functional; design: scale not given: the % may be the effect or the level left

SMILES: Clc1c(-c2nnc(CNc3ccccc3)o2)sc2ccccc12
inhibition zone (IZ) (Bacillus subtilis [1]): 16 mm
inhibition zone (IZ) (Staphylococcus aureus): 15 mm

SMILES: O=c1c2ccccc2nc(-c2sc3ccccc3c2Cl)n1O
inhibition zone (IZ) (Bacillus subtilis [3]): 15 mm
inhibition zone (IZ) (Escherichia coli): 16 mm

SMILES: CC(=O)CC(=O)c1cc2ccccc2s1
Activity (Mus musculus): <15.6 mmol/L

SMILES: CNCC[C@H](Oc1cccc2ccccc12)c1cccs1 [DULOXETINE]
half-life [4]: 12 h

SMILES: Cc1ccc(NCc2ccc(CNc3ccc(C)cc3)o2)cc1
IC50 (MDA-MB-231): 0.88 µM
IC50 (PC-3): 1.03 µM
IC50 (A549): 0.68 µM

SMILES: O=c1c2ccccc2nc(-c2sc3ccccc3c2Cl)n1-c1ccc(F)cc1
inhibition zone (IZ) (Candida albicans): 14 mm
inhibition zone (IZ) (Arthroderma pannicola): 14 mm

SMILES: O=c1c2ccccc2nc(-c2sc3ccccc3c2Cl)n1-c1ccc([N+](=O)[O-])cc1
inhibition zone (IZ) (Candida albicans): 17 mm
inhibition zone (IZ) (Arthroderma pannicola): 17 mm

SMILES: Cc1cc(=O)oc2c(/C=N/NC(=O)c3sc4ccccc4c3Cl)c(O)ccc12
inhibition [14]: 50%

SMILES: O=C(C[S+]([O-])C(F)(F)F)c1cc2ccccc2s1 (stereo unspecified)
Activity (Mus musculus): <10 mmol/L

SMILES: N#CC(C#N)=NNc1sc2c(c1C1=NC(=O)C(Cc3ccc(Cl)cc3)S1)CCCC2 (stereo unspecified)
IC50 (DLD-1): 0.059 µM
IC50 at 24 h [15]: 0.059 µM
IC50 (HA22T cell line): 0.059 µM
IC50 (HepG2): 0.059 µM
IC50 (HONE1 cell line): 0.059 µM
IC50 (MCF7 [16]): 0.059 µM
IC50 (NUGC-3): 0.059 µM

SMILES: CCOC(=O)c1c(NC(=O)c2cccc(C(F)(F)F)c2F)sc2c1CC(C)(C)NC2(C)C
EC50 (Leishmania major): 0.09 µM

SMILES: COc1ccc2c(c1)c(CC(=O)O)c(C)n2C(=O)c1ccc(Cl)cc1 [INDOMETHACIN]
Activity (Rattus norvegicus): 47.73%

More lines, main results first:

GI50 (MCF7 [2]): 0.01 µM
GI50 (NCI-H460): 0.01 µM
SMILES: CCOC(=O)c1cc(C(=O)N/N=C(/C)[C@H]2CC[C@H]3[C@@H]4CC=C5C[C@@H](O)CC[C@]5(C)[C@H]4CC[C@]23C)c(Nc2ccccc2)s1
GI50 (SF-268): 0.03 µM

GI50 (MCF7 [2]): 2 µM
GI50 (NCI-H460): 8.3 µM
SMILES: N#Cc1c(-n2c(N)c(C#N)c(N)c(/N=N/c3ccccc3)c2=O)sc2c1CCCC2
GI50 (SF-268): 4 µM

half-life [4]: 25 h
SMILES: CONC(=O)Nc1ccc(-c2sc3c(c2CN(C)C)c(=O)n(-c2ccc(OC)nn2)c(=O)n3Cc2c(F)cccc2F)cc1 [RELUGOLIX]

half-life [4]: 72 h
SMILES: CN1C(C(=O)Nc2ccccn2)=C(O)c2sccc2S1(=O)=O [TENOXICAM]

IC50 (MCF7 [5]): 38.73 µM
SMILES: Oc1ccc(Nc2nnnc3sc4c(c23)CCC4)cc1

IC50 [6]: 10 µM
SMILES: COc1cc2ncn(-c3cc(OCc4ccccc4C(F)(F)F)c(C(N)=O)s3)c2cc1OC [GW843682X]

IC50 [7]: 0.32 µM
IC50 [8]: 0.32 µM
SMILES: N#Cc1c(N)sc(C(=O)NC2=NN=C(O)/C2=C(\C=C\c2ccccc2)c2ccccc2)c1N

IC50 [9]: 30.4 µM
IC50 (Alpha glucosidase): 0.59 µM
SMILES: COc1ccc(CNC(=O)Nc2sc3c(c2C#N)CCCC3)c(OC)c1

IC50 [10]: 6 µM
SMILES: COc1cc(/C=C/C(=O)c2cc3ccccc3s2)cc(OC)c1O

IC50 (Glucagon receptor [11]): 4.4 µM
IC50 (Glucagon receptor [12]): 14.4 µM
SMILES: Cc1cc(Cl)ccc1-c1ccc(NC(=O)C(Cc2ccc(C(=O)NCCS(=O)(=O)O)s2)c2ccc(-c3ccc(C(C)(C)C)cc3)cc2)cc1 (stereo unspecified)

IC50 [13]: 1.04 µM
SMILES: C/C(=N\N=C1/CS(=O)(=O)N(C)c2ccccc21)c1sccc1Cl

IC50 [6]: 5.64 µM
SMILES: Cc1ccc(-c2cc(C(F)(F)F)nn2-c2ccc(S(N)(=O)=O)cc2)cc1 [CELECOXIB]

IC50 [7]: 0.0113 µM
IC50 [8]: 0.0466 µM
SMILES: Cc1c(NC(=O)Nc2ccc(OC(F)(F)F)cc2)sc2ccccc12

IC50 [6]: 29.2 µM
SMILES: COc1ccc2c3ccnc(C)c3n(CC3CC(c4cccs4)=NO3)c2c1 (stereo unspecified)
